Measured values from the supplement of paper PMC10307832.

Tests used:
Assay in all cases: relative viability (nuclei count vs DMSO), 5 days (fraction); higher = more cells survive
A-427 = test system: A-427
How it was run: (§1)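 Lung cancer cell lines in 1536-well plates got either a single drug or a fixed anchor-drug dose together with five library-drug doses (not always all listed) in √10 steps, by pin tool, on the day after seeding. Nuclei were counted after 5 days, and relative viability is the treated-to-vehicle ratio of nuclei counts. Values are medians of duplicate plates.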

ABC-1 = test system: ABC-1
How it was run: as §1

CAL-12T = test system: CAL-12T
How it was run: as §1

H3255 = test system: H3255
How it was run: as §1

NCI-H1355 = test system: NCI-H1355
How it was run: as §1

NCI-H1437 = test system: NCI-H1437
How it was run: as §1

NCI-H1651 = test system: NCI-H1651
How it was run: as §1

NCI-H1666 = test system: NCI-H1666
How it was run: as §1

NCI-H1792 = test system: NCI-H1792
How it was run: as §1

NCI-H1793 = test system: NCI-H1793
How it was run: as §1

NCI-H2009 = test system: NCI-H2009
How it was run: as §1

NCI-H2023 = test system: NCI-H2023
How it was run: as §1

NCI-H2087 = test system: NCI-H2087
How it was run: as §1

NCI-H23 = test system: NCI-H23
How it was run: as §1

NCI-H358 = test system: NCI-H358
How it was run: as §1

NCI-H522 = test system: NCI-H522
How it was run: as §1

NCI-H596 = test system: NCI-H596
How it was run: as §1

NCI-H727 = test system: NCI-H727
How it was run: as §1

NCI-H838 = test system: NCI-H838
How it was run: as §1

PC-14 = test system: PC-14
How it was run: as §1

SK-MES-1 = test system: SK-MES-1
How it was run: as §1

SW 1573 = test system: SW 1573
How it was run: as §1

UMC-11 = test system: UMC-11
How it was run: as §1

C=C1C(=O)O[C@@H](CCCCCCCC)[C@@H]1C(=O)O [C-75] + Cc1nc(Nc2ncc(C(=O)Nc3c(C)cccc3Cl)s2)cc(N2CCN(CCO)CC2)n1 [Dasatinib] (partner 0.075 µM)
relative viability (A-427; first compound 0.08 µM): 0.689
relative viability (A-427; first compound 0.253 µM): 0.661
relative viability (A-427; first compound 0.8 µM): 0.645
relative viability (A-427; first compound 2.53 µM): 0.605
relative viability (A-427; first compound 8 µM): 0.658
relative viability (ABC-1; first compound 0.08 µM): 0.729
relative viability (ABC-1; first compound 0.253 µM): 0.613
relative viability (ABC-1; first compound 0.8 µM): 0.566
relative viability (ABC-1; first compound 2.53 µM): 0.585
relative viability (ABC-1; first compound 8 µM): 0.388
relative viability (CAL-12T; first compound 0.08 µM): 0.391
relative viability (CAL-12T; first compound 0.253 µM): 0.393
relative viability (CAL-12T; first compound 0.8 µM): 0.432
relative viability (CAL-12T; first compound 2.53 µM): 0.317
relative viability (CAL-12T; first compound 8 µM): 0.303
relative viability (H3255; first compound 0.08 µM): 0.382
relative viability (H3255; first compound 0.253 µM): 0.371
relative viability (H3255; first compound 0.8 µM): 0.337
relative viability (H3255; first compound 2.53 µM): 0.327
relative viability (H3255; first compound 8 µM): 0.437
relative viability (NCI-H1355; first compound 0.08 µM): 0.71
relative viability (NCI-H1355; first compound 0.253 µM): 0.613
relative viability (NCI-H1355; first compound 0.8 µM): 0.702
relative viability (NCI-H1355; first compound 2.53 µM): 0.649
relative viability (NCI-H1355; first compound 8 µM): 0.775
relative viability (NCI-H1437; first compound 0.08 µM): 0.4
relative viability (NCI-H1437; first compound 0.253 µM): 0.381
relative viability (NCI-H1437; first compound 0.8 µM): 0.367
relative viability (NCI-H1437; first compound 2.53 µM): 0.298
relative viability (NCI-H1437; first compound 8 µM): 0.458
relative viability (NCI-H1651; first compound 0.08 µM): 0.484
relative viability (NCI-H1651; first compound 0.253 µM): 0.339
relative viability (NCI-H1651; first compound 0.8 µM): 0.364
relative viability (NCI-H1651; first compound 2.53 µM): 0.362
relative viability (NCI-H1651; first compound 8 µM): 0.413
relative viability (NCI-H1666; first compound 0.08 µM): 0.836
relative viability (NCI-H1666; first compound 0.253 µM): 0.779
relative viability (NCI-H1666; first compound 0.8 µM): 0.74
relative viability (NCI-H1666; first compound 2.53 µM): 0.719
relative viability (NCI-H1666; first compound 8 µM): 0.711
relative viability (NCI-H1792; first compound 0.08 µM): 0.788
relative viability (NCI-H1792; first compound 0.253 µM): 0.623
relative viability (NCI-H1792; first compound 0.8 µM): 0.724
relative viability (NCI-H1792; first compound 2.53 µM): 0.503
relative viability (NCI-H1792; first compound 8 µM): 0.692
relative viability (NCI-H1793; first compound 0.08 µM): 0.399
relative viability (NCI-H1793; first compound 0.253 µM): 0.373
relative viability (NCI-H1793; first compound 0.8 µM): 0.32
relative viability (NCI-H1793; first compound 2.53 µM): 0.352
relative viability (NCI-H1793; first compound 8 µM): 0.373
relative viability (NCI-H2009; first compound 0.08 µM): 0.303
relative viability (NCI-H2009; first compound 0.253 µM): 0.219
relative viability (NCI-H2009; first compound 0.8 µM): 0.281
relative viability (NCI-H2009; first compound 2.53 µM): 0.228
relative viability (NCI-H2009; first compound 8 µM): 0.203
relative viability (NCI-H2023; first compound 0.08 µM): 0.639
relative viability (NCI-H2023; first compound 0.253 µM): 0.471
relative viability (NCI-H2023; first compound 0.8 µM): 0.458
relative viability (NCI-H2023; first compound 2.53 µM): 0.425
relative viability (NCI-H2023; first compound 8 µM): 0.472
relative viability (NCI-H2087; first compound 0.08 µM): 0.88
relative viability (NCI-H2087; first compound 0.253 µM): 1.06
relative viability (NCI-H2087; first compound 0.8 µM): 0.66
relative viability (NCI-H2087; first compound 2.53 µM): 0.829
relative viability (NCI-H2087; first compound 8 µM): 0.865
relative viability (NCI-H23; first compound 0.08 µM): 0.81
relative viability (NCI-H23; first compound 0.253 µM): 0.756
relative viability (NCI-H23; first compound 0.8 µM): 0.718
relative viability (NCI-H23; first compound 2.53 µM): 0.443
relative viability (NCI-H23; first compound 8 µM): 0.586
relative viability (NCI-H358; first compound 0.08 µM): 0.181
relative viability (NCI-H358; first compound 0.253 µM): 0.13
relative viability (NCI-H358; first compound 0.8 µM): 0.157
relative viability (NCI-H358; first compound 2.53 µM): 0.151
relative viability (NCI-H358; first compound 8 µM): 0.143
relative viability (NCI-H522; first compound 0.08 µM): 0.867
relative viability (NCI-H522; first compound 0.253 µM): 0.849
relative viability (NCI-H522; first compound 0.8 µM): 0.784
relative viability (NCI-H522; first compound 8 µM): 0.906
relative viability (NCI-H596; first compound 0.08 µM): 0.764
relative viability (NCI-H596; first compound 0.253 µM): 0.669
relative viability (NCI-H596; first compound 0.8 µM): 0.6
relative viability (NCI-H596; first compound 2.53 µM): 0.446
relative viability (NCI-H596; first compound 8 µM): 0.616
relative viability (NCI-H727; first compound 0.08 µM): 0.406
relative viability (NCI-H727; first compound 0.253 µM): 0.494
relative viability (NCI-H727; first compound 0.8 µM): 0.417
relative viability (NCI-H727; first compound 8 µM): 0.305
relative viability (NCI-H838; first compound 0.08 µM): 0.242
relative viability (NCI-H838; first compound 0.253 µM): 0.239
relative viability (NCI-H838; first compound 0.8 µM): 0.274
relative viability (NCI-H838; first compound 2.53 µM): 0.26
relative viability (NCI-H838; first compound 8 µM): 0.268
relative viability (PC-14; first compound 0.08 µM): 0.292
relative viability (PC-14; first compound 0.253 µM): 0.227
relative viability (PC-14; first compound 0.8 µM): 0.27
relative viability (PC-14; first compound 2.53 µM): 0.272
relative viability (PC-14; first compound 8 µM): 0.222
relative viability (SK-MES-1; first compound 0.08 µM): 0.357
relative viability (SK-MES-1; first compound 0.253 µM): 0.286
relative viability (SK-MES-1; first compound 0.8 µM): 0.319
relative viability (SK-MES-1; first compound 2.53 µM): 0.332
relative viability (SK-MES-1; first compound 8 µM): 0.336
relative viability (SW 1573; first compound 0.08 µM): 0.632
relative viability (SW 1573; first compound 0.253 µM): 0.476
relative viability (SW 1573; first compound 0.8 µM): 0.291
relative viability (SW 1573; first compound 2.53 µM): 0.46
relative viability (SW 1573; first compound 8 µM): 0.295
relative viability (UMC-11; first compound 0.08 µM): 0.43
relative viability (UMC-11; first compound 0.253 µM): 0.547
relative viability (UMC-11; first compound 0.8 µM): 0.389
relative viability (UMC-11; first compound 2.53 µM): 0.433
relative viability (UMC-11; first compound 8 µM): 0.376
